From PubChem BioAssay (NCI) come the findings set out here.

Structures are written as SMILES.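 Method: 48-hour compound exposure of cells in 96-well plates, five concentrations, linear interpolation of endpoints. The concentration for full growth arrest is given as TGI.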

Test systems include MDA-MB-435; MDA-MB-231 breast; HOP-62 NSCLC; HOP-92 NSCLC; TK-10 renal; HL-60(TB) leukemia; SF-539 CNS; CAKI-1 renal; NCI/ADR-RES ovarian; MDA-N; SW-620 colon; SN12C renal; EKVX NSCLC; A498 renal; A549 NSCLC; SF-295 CNS; MCF7 breast; SK-OV-3 ovarian; NCI-H23 lung; OVCAR-8 ovarian.
Holding throughout (experiment): NCI anticancer screen, dose series, 48 h

Regarding `CC1=C(O)C(=O)C[C@]2(C)[C@H]3CC=C4[C@@H]5CC(C)(C)CC[C@@H]5C(=O)[C@H](O)[C@@]4(C)[C@]3(C)CC[C@@H]12`, the TGI in the assay on MDA-MB-435 was > 50 µM; in the assay on MDA-MB-231 breast it was > 50 µM; in the assay with HOP-62 NSCLC it was > 50 µM; with HOP-92 NSCLC, 28.5 µM; in the assay on TK-10 renal, > 50 µM; in the assay on HL-60(TB) leukemia, > 50 µM. In addition, the TGI in the assay on SF-539 CNS, with CAKI-1 renal, in the assay with NCI/ADR-RES ovarian, with MDA-N, with SW-620 colon and in the assay with SN12C renal was > 50 µM each time. In addition, the TGI in the assay with EKVX NSCLC, with A498 renal, in the assay on A549 NSCLC, in the assay on SF-295 CNS, with MCF7 breast and in the assay on SK-OV-3 ovarian was > 50 µM each time. The TGI with NCI-H23 lung and in the assay with OVCAR-8 ovarian was > 50 µM each time.
For `COc1ccc(N=Nc2ccc3oc(=O)c(C(=O)Nc4ccccc4)cc3c2)cc1`, the TGI in the assay with MDA-MB-435, in the assay with MDA-MB-231 breast, in the assay on HOP-62 NSCLC, in the assay with HOP-92 NSCLC, with TK-10 renal and in the assay with HL-60(TB) leukemia was > 10 µM in each case. Besides, the TGI in the assay on SF-539 CNS, with CAKI-1 renal, with NCI/ADR-RES ovarian, in the assay with MDA-N, in the assay with SW-620 colon and in the assay on SN12C renal was > 10 µM each time. For the same compound, the TGI in the assay with EKVX NSCLC, in the assay on A498 renal, in the assay on A549 NSCLC, in the assay on SF-295 CNS, with MCF7 breast and with SK-OV-3 ovarian was > 10 µM each time. Also, the TGI in the assay on NCI-H23 lung and with OVCAR-8 ovarian was > 10 µM throughout.
In the case of `CCCCCCCCCCCCCCCCCCNc1ccn(C2OC(CO)C(O)C2O)c(=O)n1` (centres undefined), the TGI in the assay on MDA-MB-435 was > 100 µM; in the assay on MDA-MB-231 breast, > 100 µM; with HOP-62 NSCLC, > 100 µM; with HOP-92 NSCLC it was > 100 µM; in the assay on TK-10 renal it was > 100 µM; in the assay on HL-60(TB) leukemia it was 13.6 µM. In addition, the TGI with SF-539 CNS, with CAKI-1 renal, in the assay on NCI/ADR-RES ovarian, in the assay on MDA-N, in the assay on SW-620 colon and in the assay on SN12C renal was > 100 µM each time. Besides, the TGI with EKVX NSCLC, in the assay on A498 renal, with A549 NSCLC, in the assay on SF-295 CNS, with MCF7 breast and in the assay on SK-OV-3 ovarian was > 100 µM each time. Moreover, the TGI with NCI-H23 lung and with OVCAR-8 ovarian was > 100 µM in each case.
Regarding `CC(=O)O[C@@H]1[C@H]2[C@@H](OC(=O)c3ccccc3)[C@@H](C)C[C@]2(O)[C@H](OC(C)=O)[C@@]2(C)[C@@H]3CC(C)(C)C(=O)[C@]3(OC(C)=O)C[C@@]12C`, the TGI in the assay on MDA-MB-435, with MDA-MB-231 breast, in the assay with HOP-62 NSCLC, in the assay with HOP-92 NSCLC, in the assay on TK-10 renal and in the assay on HL-60(TB) leukemia was > 25 µM in each case. The TGI in the assay with SF-539 CNS, in the assay on CAKI-1 renal, in the assay on NCI/ADR-RES ovarian, in the assay on MDA-N, in the assay on SW-620 colon and in the assay on SN12C renal was > 25 µM each time. The TGI in the assay with EKVX NSCLC, with A498 renal, with SF-295 CNS, with MCF7 breast, in the assay with SK-OV-3 ovarian and in the assay on NCI-H23 lung was > 25 µM throughout. Besides, the TGI in the assay with OVCAR-8 ovarian was > 25 µM.
`O=c1c2c(c1=O)C1(SCCCS1)c1cc(Cl)ccc1O2`: the TGI in the assay on MDA-MB-435, in the assay on MDA-MB-231 breast, with HOP-62 NSCLC, in the assay with HOP-92 NSCLC, in the assay on TK-10 renal and with HL-60(TB) leukemia was > 100 µM throughout. The TGI in the assay with SF-539 CNS, in the assay on CAKI-1 renal, with NCI/ADR-RES ovarian, with MDA-N, with SW-620 colon and in the assay on SN12C renal was > 100 µM in each case. Further, the TGI in the assay on EKVX NSCLC, in the assay with A498 renal, in the assay with A549 NSCLC, with SF-295 CNS, in the assay on MCF7 breast and in the assay with SK-OV-3 ovarian was > 100 µM in each case. Besides, the TGI with NCI-H23 lung and in the assay with OVCAR-8 ovarian was > 100 µM in each case.
On to `CCOC(=O)c1sc2nc(SC)nc3c2c1NCN3c1ccc2c(c1)OCCCO2`, for which the TGI in the assay on MDA-MB-435, in the assay with MDA-MB-231 breast, with HOP-62 NSCLC, in the assay with HOP-92 NSCLC, in the assay on TK-10 renal and with HL-60(TB) leukemia was > 100 µM throughout. Moreover, the TGI in the assay with SF-539 CNS is 53.9 µM; with CAKI-1 renal, > 100 µM; in the assay on NCI/ADR-RES ovarian, > 100 µM; in the assay on MDA-N, > 100 µM; in the assay on SW-620 colon, > 100 µM; in the assay with SN12C renal, > 100 µM. In addition, the TGI with EKVX NSCLC is > 100 µM; in the assay with A498 renal, 45.8 µM; with A549 NSCLC it was > 100 µM; in the assay on SF-295 CNS, 5.1 µM; in the assay on MCF7 breast, > 100 µM; in the assay on SK-OV-3 ovarian, 75.7 µM. For the same compound, the TGI in the assay with NCI-H23 lung and in the assay with OVCAR-8 ovarian was > 100 µM in each case.
Regarding `O=c1[nH]/c(=C/c2ccc(OCc3ccccc3)cn2)c(=O)[nH]/c1=C/c1ccc(Cl)cc1`, the TGI with MDA-MB-435 is 0.796 µM; in the assay with MDA-MB-231 breast, > 100 µM; in the assay with HOP-62 NSCLC, 47.8 µM; in the assay with HOP-92 NSCLC it was > 100 µM; in the assay on TK-10 renal, > 82.9 µM; with HL-60(TB) leukemia, > 40.2 µM. The TGI is > 100 µM in the assay on SF-539 CNS; > 56.6 µM in the assay with CAKI-1 renal; > 100 µM in the assay on NCI/ADR-RES ovarian; 0.723 µM with MDA-N; > 100 µM in the assay on SW-620 colon; > 100 µM in the assay with SN12C renal. In addition, the TGI was > 100 µM with EKVX NSCLC; 7.53 µM with A498 renal; > 100 µM in the assay with A549 NSCLC; 29.4 µM with SF-295 CNS; > 100 µM in the assay on MCF7 breast; > 100 µM with SK-OV-3 ovarian. Moreover, the TGI in the assay with NCI-H23 lung and in the assay on OVCAR-8 ovarian was > 100 µM each time.
Turning to `Cc1nc(-n2[nH]c(C)c(CCO)c2=O)[nH]c(=O)c1CCO`, the TGI in the assay with MDA-MB-435, in the assay on MDA-MB-231 breast, in the assay on HOP-62 NSCLC, with HOP-92 NSCLC, in the assay with TK-10 renal and in the assay with HL-60(TB) leukemia was > 100 µM in each case. Moreover, the TGI in the assay with SF-539 CNS, in the assay with CAKI-1 renal, in the assay with NCI/ADR-RES ovarian, with MDA-N, in the assay on SW-620 colon and with SN12C renal was > 100 µM throughout. Moreover, the TGI in the assay with EKVX NSCLC, in the assay with A498 renal, with A549 NSCLC, in the assay with SF-295 CNS, in the assay on MCF7 breast and in the assay on SK-OV-3 ovarian was > 100 µM throughout. The TGI in the assay with NCI-H23 lung and with OVCAR-8 ovarian was > 100 µM throughout.
For the compound `C(=C\c1nccs1)/c1cccc(/C=C/c2nccs2)n1`, the TGI in the assay on MDA-MB-435, in the assay with MDA-MB-231 breast, in the assay with HOP-62 NSCLC, with HOP-92 NSCLC, with TK-10 renal and in the assay on HL-60(TB) leukemia was > 50 µM throughout. Besides, the TGI in the assay with SF-539 CNS, in the assay with CAKI-1 renal, with NCI/ADR-RES ovarian, with MDA-N, with SW-620 colon and with SN12C renal was > 50 µM in each case. Besides, the TGI in the assay with EKVX NSCLC, with A498 renal, with A549 NSCLC, in the assay on SF-295 CNS, in the assay with MCF7 breast and with SK-OV-3 ovarian was > 50 µM throughout. Moreover, the TGI with NCI-H23 lung and in the assay with OVCAR-8 ovarian was > 50 µM throughout.
Turning to `COc1cc(Cn2c(=S)ss/c2=N\C(=S)N(C)C)cc(OC)c1OC`, the TGI in the assay on MDA-MB-435 was 15.8 µM; with MDA-MB-231 breast, > 47.4 µM; in the assay with HOP-62 NSCLC it was > 84.1 µM; in the assay with HOP-92 NSCLC, 56.3 µM; in the assay with TK-10 renal, > 100 µM; in the assay with HL-60(TB) leukemia, > 61.5 µM. The TGI in the assay on SF-539 CNS was > 57.7 µM; with CAKI-1 renal it was > 100 µM; with NCI/ADR-RES ovarian, > 100 µM; in the assay with MDA-N, 3.01 µM; in the assay with SW-620 colon, > 100 µM; with SN12C renal, > 100 µM. Besides, the TGI is > 100 µM in the assay on EKVX NSCLC; > 100 µM in the assay with A498 renal; > 100 µM in the assay with A549 NSCLC; 38.5 µM in the assay with SF-295 CNS; > 100 µM in the assay with MCF7 breast; > 63.1 µM in the assay on SK-OV-3 ovarian. Besides, the figures for the TGI in the assay on NCI-H23 lung and in the assay with OVCAR-8 ovarian were 50.6 µM and > 70.9 µM, respectively.
For the compound `CCCc1c(O)c(=O)c2c(OC)cc(OC)c3c4c(OC)cc(OC)c5c(=O)c(O)c(CCC)c(c1c23)c54`, the TGI in the assay on MDA-MB-435 was found to be 10.4 µM; in the assay with MDA-MB-231 breast, 7.09 µM; with HOP-62 NSCLC, 8.11 µM; in the assay with HOP-92 NSCLC, 2.55 µM; with TK-10 renal, 15.8 µM; in the assay on HL-60(TB) leukemia, 4.64 µM. Moreover, the TGI turned out to be 11.3 µM in the assay with SF-539 CNS; 2.32 µM in the assay with CAKI-1 renal; 3.55 µM with NCI/ADR-RES ovarian; 12.2 µM with MDA-N; 12.2 µM in the assay with SW-620 colon; 22.3 µM in the assay on SN12C renal. Further, the TGI in the assay on EKVX NSCLC was 6.66 µM; with A498 renal, 11.9 µM; in the assay on A549 NSCLC, 13.1 µM; in the assay with SF-295 CNS, 12.2 µM; in the assay on MCF7 breast it was 15.3 µM; in the assay with SK-OV-3 ovarian, 2.96 µM. Moreover, the TGI in the assay with NCI-H23 lung came to 3.16 µM; in the assay with OVCAR-8 ovarian it was 3.38 µM.
On to `CN=CN(C)c1c2ccccc2nc2ccccc12`, for which the TGI in the assay with MDA-MB-435, with MDA-MB-231 breast, with HOP-62 NSCLC, with HOP-92 NSCLC, in the assay on TK-10 renal and in the assay on HL-60(TB) leukemia was > 100 µM in each case. Moreover, the TGI in the assay with SF-539 CNS, in the assay on CAKI-1 renal, with NCI/ADR-RES ovarian, in the assay on MDA-N, with SW-620 colon and in the assay with SN12C renal was > 100 µM each time. Moreover, the TGI in the assay on EKVX NSCLC, in the assay on A498 renal, in the assay with A549 NSCLC, with SF-295 CNS, in the assay on MCF7 breast and in the assay with SK-OV-3 ovarian was > 100 µM each time. In addition, the TGI with NCI-H23 lung and in the assay with OVCAR-8 ovarian was > 100 µM each time.
